Tests used:
Assay type in all cases: functional
[1] = tested on: SK-N-SH; assay: Cytotoxicity against human SK-N-SH cells after 48 hrs by SRB assay
[2] = tested on: HEp-2; assay: Cytotoxicity against human Hep2 cells after 48 hrs by SRB assay
[3] = tested on: COLO 205; assay: Cytotoxicity against human COLO205 cells after 48 hrs by SRB assay
[4] = tested on: SW-620; assay: Cytotoxicity against human SW620 cells after 48 hrs by SRB assay
[5] = tested on: Rattus norvegicus; assay: Antiinflammatory activity against carrageenan-induced paw edema in albino rat at 50 mg/kg, po administered 30 mins before carrageenan challenge measured after 1 to 3 hrs
[6] = tested on: Rattus norvegicus; assay: Antiinflammatory activity against carrageenan-induced paw edema in albino rat at 100 mg/kg, po administered 30 mins before carrageenan challenge measured after 1 to 3 hrs
[7] = tested on: Rattus norvegicus; assay: Antiinflammatory activity against carrageenan-induced paw edema in albino rat at 25 mg/kg, po administered 30 mins before carrageenan challenge measured after 1 to 3 hrs

| SMILES | growth inhibition (GI) [1] [%] | growth inhibition (GI) [2] [%] | growth inhibition (GI) [3] [%] | growth inhibition (GI) [4] [%] | Activity [5] [%] | Activity [6] [%] | Activity [7] [%] |
| --- | --- | --- | --- | --- | --- | --- | --- |
| O=C1c2nc[nH]c2C(=O)N1CCN1CCCCC1 | 22 | 18 | 10 | 17 | 0 |  |  |
| O=C1Cc2ccccc2CC(=O)N1Cc1ccco1 | 11 | 17 | 10 | 17 | 22 |  |  |
| O=C1c2nc[nH]c2C(=O)N1Cc1ccccn1 | 11 | 17 | 6 | 33 | 24 |  |  |
| O=C1c2nc[nH]c2C(=O)N1Cc1ccncc1 | 1 | 26 | 3 | 43 | 21 |  |  |
| O=C1Cc2ccccc2CC(=O)N1Cc1ccccn1 | 0 | 11 | 0 | 37 | 32 |  |  |
| O=C1Cc2ccccc2CC(=O)N1Cc1cccnc1 | 0 | 6 | 0 | 22 | 40 | 67 | 19 |
| O=C1Cc2ccccc2CC(=O)N1Cc1cccs1 | 1 | 19 | 4 | 52 | 34 |  |  |
| O=C1c2nccnc2C(=O)N1CCN1CCCCC1 | 10 | 12 | 2 | 9 | 16 |  |  |
| O=C1Cc2ccccc2CC(=O)N1CCN1CCCCC1 | 0 | 15 | 0 | 45 | 21 |  |  |
| O=C1c2nccnc2C(=O)N1Cc1ccccn1 | 11 | 16 | 6 | 33 | 29 |  |  |
| O=C1c2ccncc2C(=O)N1CCN1CCCCC1 | 13 | 13 | 1 | 0 | 12 |  |  |
| O=C1c2ccncc2C(=O)N1Cc1ccco1 | 0 | 8 | 0 | 45 | 24 |  |  |
| O=C1c2ccncc2C(=O)N1Cc1cccs1 | 12 | 24 | 4 | 53 | 35 |  |  |
| O=C1c2nccnc2C(=O)N1Cc1ccncc1 | 0 | 11 | 1 | 36 | 32 |  |  |
| O=C1c2ccncc2C(=O)N1Cc1ccccn1 | 10 | 24 | 4 | 33 | 27 |  |  |
| O=C1c2nccnc2C(=O)N1Cc1cccs1 | 12 | 16 | 7 | 46 | 31 |  |  |
| O=C1c2nc[nH]c2C(=O)N1Cc1cccs1 | 2 | 15 | 3 | 23 | 32 |  |  |
| O=C1c2nccnc2C(=O)N1Cc1ccco1 | 15 | 11 | 7 | 12 | 0 |  |  |
| O=C1c2ccncc2C(=O)N1Cc1ccncc1 | 9 | 12 | 12 | 20 | 33 |  |  |
| O=c1[nH]cc(F)c(=O)[nH]1 [FLUOROURACIL] | 56 | 40 | 25 | 44 |  |  |  |
| CO[C@@]12[C@H](COC(N)=O)C3=C(C(=O)C(C)=C(N)C3=O)N1C[C@@H]1N[C@@H]12 [MITOMYCIN] | 85 | 60 | 41 | 29 |  |  |  |
| CCCCC1C(=O)N(c2ccccc2)N(c2ccccc2)C1=O [PHENYLBUTAZONE] |  |  |  |  | 37 | 63 | 17 |
